# Measurements from patent publication US6492137B1, “Response element compositions and assays employing same” (The Salk Institute for Biological Studies, priority 1989, dated 2002).
# Molecular target: T1, RARα (Homo sapiens, UniProt P10276)
# T1 sequence (P10276 1-462): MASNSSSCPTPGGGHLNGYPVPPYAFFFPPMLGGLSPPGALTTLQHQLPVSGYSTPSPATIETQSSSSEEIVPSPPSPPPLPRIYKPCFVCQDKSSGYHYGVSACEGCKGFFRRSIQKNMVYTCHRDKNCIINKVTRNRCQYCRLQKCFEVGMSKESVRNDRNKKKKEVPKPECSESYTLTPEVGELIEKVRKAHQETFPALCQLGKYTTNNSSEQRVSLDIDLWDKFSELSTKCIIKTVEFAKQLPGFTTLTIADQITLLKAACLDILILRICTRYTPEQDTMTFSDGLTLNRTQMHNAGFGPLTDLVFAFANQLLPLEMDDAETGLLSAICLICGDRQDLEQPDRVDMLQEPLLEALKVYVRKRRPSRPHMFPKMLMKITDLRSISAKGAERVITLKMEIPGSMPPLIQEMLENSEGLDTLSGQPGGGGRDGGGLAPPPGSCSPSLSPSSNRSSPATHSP
# Assay: ΔSV-CAT reporter cotransfection assay in CV-1 cells with RARα expression plasmid, ±RA
# Format: cell-based
# Parameters: expressed in transfected cells; host or cells: CV-1 (monkey kidney)
# Conditions: RA 1 μM
# From the text: Receptor expression plasmids used in the following cotransfection assays have been described previously (pRShTRβ [see Thompson, et al., Proc. Natl. Acad. Sci. U.S.A. 86: 3494-3498 (1989)]; pRShRARα [see Giguere, et al., Nature 330: 624-629 (1987)]; pRShRARβ and pRshRARγ [see Ishikawa, et al., Mol. Endocrinol, 4: 837-844 (1990)]; and pRShVDR, [Schule, et al., Cell 61: 497-504 (1990)]. A basal reporter plasmid ΔSV-CAT was constructed by replacing the TK promoter in TK-CAT [Damm, et al., Nature 339: 593-597 (1989)] with the SphI-HindIII fragment of the SV40 early promoter. All of the recombinant CAT reporter plasmids used herein harbor a single copy of the indicated oligonucleotides at the unique HindIII site upstream of the SV40 promoter. Identity of the inserted oligonucleotides was confirmed by sequencing. To improve production of receptor proteins in COS cells, a new eukaryotic expression vector pCMX was prepared by modifying the plasmid CDM8 [Seed, B., Nature 329: 840-842 (1987)]. The CDM8 was cut with MluI and StuI in order to release the DNA fragment encoding the CMV/T7 promoter, SV40 small t intron/poly A signal, polyoma virus enhancer/origin, and SV40 enhancer/origin. The resulting fragment was ligated to a larger fragment of PvuII-digested PUC19. An internal deletion was introduced between unique BamHI and BclI sites present in the DCM8 portion. The stuffer sequence flanked by XbaI sites was replaced with a synthetic polylinker coding for 5′-KpnI/Asp718-EcoRV-BamHI -MscI-NheI-3′, followed by a stretch of 5′-[…]-3′ (SEQ ID NO:48) which can function as a universal termination signal for protein translation. The coding sequence of the luciferase [de Wet, et al., Mol. Cell. Biol. 7: 725-737 (1987)] and human TRβ, RARα, and VDR was placed in the polylinker region of the pCMX, generating pCMX-LUC, Pcmx-Htrβ, pCMX-hRARα, and pCMX-hVDR, respectively. The translation start site of the RARα was modified to […] by attaching the synthetic linker encoding a consensus translation start signal [Hollenberg, et al., Cell 55: 899-906 (1988)]. […]
substance,measurement,value
"MHC-N: 23-nucleotide core of the wild-type sequence (MHC-TRE) (SEQ ID NO:14) (AGCTGGAGGTGACAGGAGGACAGCAAGCT; DNA, backbone not given here; further chemistry not fully specified)",RA response (in words),not RA response
